From PMC2994747, “Molecular Characterization of c-Abl/c-Src Kinase Inhibitors Targeted against Murine Tumour Progenitor Cells that Express Stem Cell Markers” (PLoS ONE, 2010)
Structures can show the parent of a compound that is named as a salt. Where two headings read alike, the source gives them in different places.

Columns and labels:
leukaemia cells = conditions: cited from earlier work
A2C12 [1] = assay: Cell cycle analysis by flow cytometry; format: cell-based, mouse; conditions: IC50 concentration, 96 h
Method in brief: (§1)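 Cells were harvested with trypsin, washed in PBS and resuspended in kit buffer, then centrifuged and taken up in solution A for 10 min at room temperature. Solution B was added, then solution C, with incubation at 4°C in the dark before flow cytometric DNA-content analysis.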

BetaD5 [2] = assay: Cell cycle analysis by flow cytometry; format: cell-based, mouse; conditions: IC50 concentration, 96 h
Method in brief: as §1

GammaD12 [3] = assay: Cell cycle analysis by flow cytometry; format: cell-based, mouse; conditions: IC50 concentration, 96 h
Method in brief: as §1

GammaA3 [4] = assay: Cell cycle analysis by flow cytometry; format: cell-based, mouse; conditions: IC50 concentration, 96 h
Method in brief: as §1

CaCo2 [5] = assay: Cell cycle analysis by flow cytometry; format: cell-based, human; conditions: IC50 concentration, 96 h
Method in brief: as §1

A549 [6] = assay: Cell cycle analysis by flow cytometry; format: cell-based, human; conditions: IC50 concentration, 96 h
Method in brief: as §1

HepG2 [7] = assay: Cell cycle analysis by flow cytometry; format: cell-based, human; conditions: IC50 concentration, 96 h
Method in brief: as §1

CaCo2 [8] = assay: MTS cell viability assay; format: cell-based, human; conditions: Homo sapiens
Method in brief: (§2)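 Viability read by MTS tetrazolium conversion (1 h, absorbance 490 nm) after 24 h or 96 h exposure to compound versus 0.2% DMSO vehicle, triplicate wells. Human (A549, CaCo2, HepG2) and murine NSCLC monolayers cultured in DMEM, 10% FCS, 37°C.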

A549 [9] = assay: MTS cell viability assay; format: cell-based, human; conditions: Homo sapiens
Method in brief: as §2

HepG2 [10] = assay: MTS cell viability assay; format: cell-based, human; conditions: Homo sapiens
Method in brief: as §2

c-Src = biological target: T1, c-Src (Homo sapiens, UniProt P12931); assay: Src filter-binding kinase assay (Src Assay Kit); format: biochemical; conditions: isolated Src; calculated from ID50, ATP-competitive; E0 0.005, S0 0.012 µM
T1 construct: His tag; purchased Upstate (Lake Placid, NY, USA)
T1 sequence (P12931 whole entry): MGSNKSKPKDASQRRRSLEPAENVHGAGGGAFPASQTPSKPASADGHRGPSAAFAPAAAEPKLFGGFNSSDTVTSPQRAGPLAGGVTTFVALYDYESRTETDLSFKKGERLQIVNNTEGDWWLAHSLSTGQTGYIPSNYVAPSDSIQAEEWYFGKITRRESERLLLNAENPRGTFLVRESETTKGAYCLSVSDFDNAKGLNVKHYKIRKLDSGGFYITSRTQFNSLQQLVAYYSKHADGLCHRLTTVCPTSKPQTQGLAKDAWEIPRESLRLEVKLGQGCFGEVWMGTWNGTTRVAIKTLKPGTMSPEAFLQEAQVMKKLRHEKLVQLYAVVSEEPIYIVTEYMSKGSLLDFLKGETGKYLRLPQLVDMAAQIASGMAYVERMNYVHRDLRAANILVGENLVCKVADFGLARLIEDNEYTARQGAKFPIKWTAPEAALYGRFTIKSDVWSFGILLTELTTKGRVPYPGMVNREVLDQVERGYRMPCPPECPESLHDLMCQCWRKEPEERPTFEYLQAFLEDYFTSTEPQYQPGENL
Protocol: (§3) Baculovirus-produced recombinant purified his-tagged active against human Src and Abl were purchased from Upstate (Lake Placid, NY, USA).
(§4) Src activity was measured in a filter-binding assay using the Src Assay Kit (Upstate, Lake Placid, NY, USA), according to the manufacturer's protocol, using the specific Src peptide substrate [[…]] in the presence of 0.125 pmol of Src and 0.160 pmol of [γ-^32P]ATP. Abl activity was measured in a filter-binding assay using an Abl specific peptide substrate (Abtide, Upstate). Reaction conditions were (in a final volume of 10 µl): 25 mM Tris-HCl pH 7.5, 1 mM DTT, 0.012 µM [γ-^32P]ATP, 0.022 µM c-Abl. Reactions were incubated 10 min at 30°C.The samples (9 µl) were spotted on paper cellulose filters which were washed according to the manufacturer's protocol. Filter-bound radioactivity was measured by liquid scintillation with a Microbeta-Trilux apparatus (PerkinElmer, Waltham, MA, USA).
(§5) The ID50 were converted to Ki according to a competitive mechanism with respect to the substrate ATP. […] Since (i) the ATP concentration was limiting, i.e., [ATP], Km(ATP), and (ii) the enzyme concentration was not negligible with respect to the ATP concentration, the classical Cheng-Prusoff relationship was not applicable. Consequently, Ki values were calculated according to [drawing 3] (2) where S0 is the concentration of the competing substrate (ATP) and E0 is the concentration of the enzyme. Each experiment was done in triplicate and mean values were used for the interpolation. Curve fitting was performed with the program GraphPad Prism.

A2C12 [11] = assay: MTS cell viability assay; format: cell-based, mouse; conditions: Mus musculus
Method in brief: as §2

BetaD5 [12] = assay: MTS cell viability assay; format: cell-based, mouse; conditions: Mus musculus
Method in brief: as §2

GammaD12 [13] = assay: MTS cell viability assay; format: cell-based, mouse; conditions: Mus musculus, MTS
Method in brief: as §2

GammaA3 [14] = assay: MTS cell viability assay; format: cell-based, mouse; conditions: Mus musculus
Method in brief: as §2

c-Abl = biological target: T2, c-Abl (Homo sapiens, UniProt P00519); assay: Abl filter-binding kinase assay (Abtide, [γ-32P]ATP); format: biochemical; conditions: isolated Abl; calculated from ID50, ATP-competitive; E0 0.005, S0 0.012 µM
T2 construct: His tag; purchased Upstate (Lake Placid, NY, USA)
T2 sequence (P00519 whole entry): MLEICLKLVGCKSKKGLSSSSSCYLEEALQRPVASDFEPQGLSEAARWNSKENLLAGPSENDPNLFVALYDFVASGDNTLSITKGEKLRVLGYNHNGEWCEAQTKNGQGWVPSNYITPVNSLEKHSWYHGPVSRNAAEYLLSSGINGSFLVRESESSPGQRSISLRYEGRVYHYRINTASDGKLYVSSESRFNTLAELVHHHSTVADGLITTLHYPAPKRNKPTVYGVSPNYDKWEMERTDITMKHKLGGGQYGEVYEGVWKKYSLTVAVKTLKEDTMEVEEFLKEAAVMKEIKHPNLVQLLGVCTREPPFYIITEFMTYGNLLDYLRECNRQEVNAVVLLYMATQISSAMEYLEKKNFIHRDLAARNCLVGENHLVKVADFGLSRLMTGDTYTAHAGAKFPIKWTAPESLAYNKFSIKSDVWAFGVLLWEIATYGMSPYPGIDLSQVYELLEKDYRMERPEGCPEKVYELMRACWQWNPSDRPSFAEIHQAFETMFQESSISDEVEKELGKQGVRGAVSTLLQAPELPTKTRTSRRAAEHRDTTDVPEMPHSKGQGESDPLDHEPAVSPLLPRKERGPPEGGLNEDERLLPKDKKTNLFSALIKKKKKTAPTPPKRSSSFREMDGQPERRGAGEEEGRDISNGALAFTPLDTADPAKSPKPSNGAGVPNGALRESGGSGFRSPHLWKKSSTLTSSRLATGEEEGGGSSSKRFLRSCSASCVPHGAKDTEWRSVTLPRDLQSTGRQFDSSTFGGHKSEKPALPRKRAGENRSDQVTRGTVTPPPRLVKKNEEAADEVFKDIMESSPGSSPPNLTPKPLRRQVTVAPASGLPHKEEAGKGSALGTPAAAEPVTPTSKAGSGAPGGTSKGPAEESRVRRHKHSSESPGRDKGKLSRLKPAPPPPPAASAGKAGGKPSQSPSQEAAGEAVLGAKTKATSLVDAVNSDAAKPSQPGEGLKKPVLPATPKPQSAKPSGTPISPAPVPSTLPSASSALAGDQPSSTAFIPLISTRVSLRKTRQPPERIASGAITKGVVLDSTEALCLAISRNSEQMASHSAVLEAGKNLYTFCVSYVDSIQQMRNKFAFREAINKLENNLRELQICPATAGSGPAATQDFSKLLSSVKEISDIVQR
Protocol: as §3, §4, §5

[15] = 24 h, read-out: Calculated IC50 after single treatment for 24 h
[16] = 96 h, read-out: Calculated IC50 after daily treatment for 96 h

Cc1ccc(NC(=O)c2ccc(CN3CCN(C)CC3)cc2)cc1Nc1nccc(-c2cccnc2)n1 [Imatinib, Imatinib mesylate]
Antiproliferative effect for leukaemia cells (leukaemia cells): submicromolar range

CC(C)Sc1nc(NCCc2ccccc2)c2cnn(CC(Cl)c3ccccc3)c2n1 (stereo not drawn) [Si142]
Cells in G1 phase (A2C12 [1]): 71.3% | Cells in G2 phase (A2C12 [1]): 13.4% | Cells in S phase (A2C12 [1]): 15.3% | Cells in G1 phase (BetaD5 [2]): 53.6% | Cells in G2 phase (BetaD5 [2]): 25.8% | Cells in S phase (BetaD5 [2]): 20.6% | Cells in G1 phase (GammaD12 [3]): 33.7% | Cells in G2 phase (GammaD12 [3]): 6.6% | Cells in S phase (GammaD12 [3]): 59.7% | Cells in G1 phase (GammaA3 [4]): 67% | Cells in G2 phase (GammaA3 [4]): 15.5% | Cells in S phase (GammaA3 [4]): 17.5% | Cells in G1 phase (CaCo2 [5]): 55.6% | Cells in G2 phase (CaCo2 [5]): 11.5% | Cells in S phase (CaCo2 [5]): 32.9% | Cells in G1 phase (A549 [6]): 75.4% | Cells in G2 phase (A549 [6]): 2.2% | Cells in S phase (A549 [6]): 25.7% | Cells in G1 phase (HepG2 [7]): 53.5% | Cells in G2 phase (HepG2 [7]): 7.9% | Cells in S phase (HepG2 [7]): 38.6% | melting point: 125 to 126 °C | IC50 (CaCo2 [8]; Caco-2, 24 h, read-out: Calculated IC50 after single treatment for 24 h): 89.2 ± 4.6 µM | IC50 (CaCo2 [8]; Caco-2, 96 h, read-out: Calculated IC50 after daily treatment for 96 h): 6.8 ± 0.9 µM | IC50 (A549 [9]; A549, 24 h, 24 h, read-out: Calculated IC50 after single treatment for 24 h): > 100 µM | IC50 (A549 [9]; A549, 96 h, 96 h, read-out: Calculated IC50 after daily treatment for 96 h): 8.1 ± 0.7 µM | IC50 (HepG2 [10]; [15]): 89.2 ± 4.6 µM | IC50 (HepG2 [10]; [16]): 16.9 ± 2.6 µM | Ki (c-Src): 2000 nM | IC50 (A2C12 [11]; [15]): 40.4 ± 2.1 µM | IC50 (A2C12 [11]; [16]): 5.3 ± 0.2 µM | IC50 (BetaD5 [12]; [15]): 11 ± 0.7 µM | IC50 (BetaD5 [12]; [16]): 8.7 ± 0.7 µM | IC50 (GammaD12 [13]; [15]): 11.8 ± 1.6 µM | IC50 (GammaD12 [13]; [16]): 7.7 ± 0.5 µM | IC50 (GammaA3 [14]; [15]): 18.7 ± 4 µM | IC50 (GammaA3 [14]; [16]): 7.1 ± 0.5 µM | Ki (c-Abl): 120 nM
